Bounds are passed on as bounds.

The test deals with T1, JAK3 (JH1 and JH2 domain) (Homo sapiens, UniProt P52333).
T1 sequence (P52333 521-1111 limits assumed): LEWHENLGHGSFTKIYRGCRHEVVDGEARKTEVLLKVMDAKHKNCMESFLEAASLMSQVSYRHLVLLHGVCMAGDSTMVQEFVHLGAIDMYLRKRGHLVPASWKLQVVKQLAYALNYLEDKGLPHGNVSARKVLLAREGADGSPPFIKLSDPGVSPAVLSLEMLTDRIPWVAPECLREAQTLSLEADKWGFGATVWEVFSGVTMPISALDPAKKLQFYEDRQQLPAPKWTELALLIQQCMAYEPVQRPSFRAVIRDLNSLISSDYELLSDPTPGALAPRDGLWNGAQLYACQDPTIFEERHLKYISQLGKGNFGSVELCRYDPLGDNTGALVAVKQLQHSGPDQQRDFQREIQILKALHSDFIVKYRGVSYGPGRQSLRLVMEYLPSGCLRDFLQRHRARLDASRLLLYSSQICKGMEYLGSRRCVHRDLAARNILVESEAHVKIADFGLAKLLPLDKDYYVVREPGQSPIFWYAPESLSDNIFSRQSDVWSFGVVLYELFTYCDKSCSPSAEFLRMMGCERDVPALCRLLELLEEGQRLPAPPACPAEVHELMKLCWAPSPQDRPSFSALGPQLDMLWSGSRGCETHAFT
Kind of test: JAK3 Kinase Assay (ELISA of peptide substrate phosphorylation). To be noted: purified JAK3 enzyme, 10 μM ATP, biotinylated peptide substrate, 1 hour at room temperature. Format: biochemical. In outline:
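Sf21-baculovirus-expressed JAK3 (JH1+JH2), glutathione-bead purified, with biotinylated peptide substrate (in buffer containing 10 μM ATP) in HEPES pH 7.5/MgCl2/DTT, 1 h RT. Product was captured on Neutravidin, detected with HRP anti-phosphotyrosine (PY99)/TMB, OD 450/650 nm. Triplicate 16-point half-log series from 200 μM gave IC50; otherwise % inhibition at 1 μM.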
For `CN(C)[C@@H]1CCN(C(=O)OC2CCn3c4ccccc4c4c5c(c6c7ccccc7n(c6c43)C2)C(=O)NC5=O)C1` (stereo partly drawn) [Cpd 74, 12,13-(2-{[(3R)-3-dimethylamino-pyrrolidin-1-yl]carbonyloxy}-butan-1,4-yl)-12,13-dihydro-5,7-dioxo-6H-indolo[2,3-a]pyrrolo[3,4-c]carbazole], the IC50 (commonly the concentration needed to halve the response being measured) is 14 nM.
The value for `O=C1NC(=O)c2c1c1c3ccccc3n3c1c1c2c2ccccc2n1CC(O)(C(=O)NCCc1cccs1)C(O)C3` (stereo not shown) [Cpd 128, 12,13-{2-[(2-thien-2-yl-ethyl)carbamoyl]-2,3-dihydroxy-butan-1,4-yl}-12,13-dihydro-5,7-dioxo-6H-indolo[2,3-a]pyrrolo[3,4-c]carbazole] was 94 nM; that for `COCCNC(=O)C1(O)Cn2c3ccccc3c3c4c(c5c6ccccc6n(c5c32)CC1O)C(=O)NC4=O` (stereo not shown) [Cpd 124, 12,13-{2-[(2-methoxy-ethyl)carbamoyl]-2,3-dihydroxy-butan-1,4-yl}-12,13-dihydro-5,7-dioxo-6H-indolo[2,3-a]pyrrolo[3,4-c]carbazole] was 52 nM; that for `O=C(NC1CCNC1)OC1CCn2c3ccccc3c3c4c(c5c6ccccc6n(c5c32)C1)C(=O)NC4=O` (stereo not shown) [Cpd 72, 12,13-[2-(pyrrolidin-3-yl-carbamoyloxy)-butan-1,4-yl]-12,13-dihydro-5,7-dioxo-6H-indolo[2,3-a]pyrrolo[3,4-c]carbazole] was 12 nM.
The value for `CC(C)NC(=O)OC1CCn2c3ccccc3c3c4c(c5c6ccccc6n(c5c32)C1)C(=O)NC4=O` (stereo not shown) [Cpd 39, 12,13-[2-(prop-2-ylcarbamoyloxy)-butan-1,4-yl]-12,13-dihydro-5,7-dioxo-6H-indolo[2,3-a]pyrrolo[3,4-c]carbazole] was 31 nM; that for `O=C1NCc2c1c1c3ccccc3n3c1c1c2c2ccccc2n1CC(COC(=O)N1CCN(CCOCCO)CC1)C3` (stereo not shown) [Cpd 166, 12,13-[2-({4-[2-(2-hydroxy-ethoxy)ethyl]piperazin-1-yl}carbonyloxymethyl)-propan-1,3-yl]-6,7,12,13-tetrahydro-5-oxo-5H-indolo[2,3-a]pyrrolo[3,4-c]carbazole] was 578 nM; that for `O=C1NC(=O)c2c1c1c3ccccc3n3c1c1c2c2ccccc2n1CC(OC(=O)N1CCN(c2ccncc2)CC1)C(O)C3` (stereo not shown) [Cpd 96, 12,13-{2-[(4-pyridin-4-yl-piperazin-1-yl)carbonyloxy]-3-hydroxy-butan-1,4-yl}-12,13-dihydro-5,7-dioxo-6H-indolo[2,3-a]pyrrolo[3,4-c]carbazole] was 295 nM.
The value for `O=C1NC(=O)c2c1c1c3ccccc3n3c1c1c2c2ccccc2n1CC(OC(=O)N1CCN(c2ccccn2)CC1)CC3` (stereo not shown) [Cpd 63, 12,13-{2-[(4-pyridin-2-yl-piperazin-1-yl)carbonyloxy]-butan-1,4-yl}-12,13-dihydro-5,7-dioxo-6H-indolo[2,3-a]pyrrolo[3,4-c]carbazole] was 129 nM; that for `CN(C)CCNC(=O)OC1CCn2c3ccccc3c3c4c(c5c6ccccc6n(c5c32)C1)C(=O)NC4=O` (stereo not shown) [Cpd 50, 12,13-{2-[(2-dimethylamino-ethyl)carbamoyloxy]-butan-1,4-yl}-12,13-dihydro-5,7-dioxo-6H-indolo[2,3-a]pyrrolo[3,4-c]carbazole] was 31 nM; that for `COc1ccccc1CNC(=O)OC1Cn2c3ccccc3c3c4c(c5c6ccccc6n(c5c32)CC1O)C(=O)NC4=O` (stereo not shown) [Cpd 78, 12,13-{2-[(2-methoxy-benzyl)carbamoyloxy]-3-hydroxy-butan-1,4-yl}-12,13-dihydro-5,7-dioxo-6H-indolo[2,3-a]pyrrolo[3,4-c]carbazole] was 179 nM.
`O=C1NCc2c1c1c3ccccc3n3c1c1c2c2ccccc2n1CC(COC(=O)N1CC[C@@H](O)C1)C3` (stereo partly drawn) [Cpd 168, 12,13-(2-{[(3R)-3-hydroxy-pyrrolidin-1-yl]carbonyloxymethyl}-propan-1,3-yl)-6,7,12,13-tetrahydro-5-oxo-5H-indolo[2,3-a]pyrrolo[3,4-c]carbazole]: the IC50 came to 346 nM.
Take `O=C1NCc2c1c1c3ccccc3n3c1c1c2c2ccccc2n1CCC(OC(=O)N1CCN(c2ccncc2)CC1)CC3` (stereo not shown) [Cpd 184, 12,13-{3-[(4-pyridin-4-yl-piperazin-1-yl)carbonyloxy]-pentan-1,5-yl}-6,7,12,13-tetrahydro-5-oxo-5H-indolo[2,3-a]pyrrolo[3,4-c]carbazole]: the IC50 is 4360 nM.
For `O=C1NCc2c1c1c3ccccc3n3c1c1c2c2ccccc2n1CC(COC(=O)N1CCN(C(=O)OCc2ccccc2)CC1)C3` (stereo not shown) [Cpd 167, 12,13-(2-{[4-(benzyloxycarbonyl)piperazin-1-yl]carbonyloxymethyl}-propan-1,3-yl)-6,7,12,13-tetrahydro-5-oxo-5H-indolo[2,3-a]pyrrolo[3,4-c]carbazole], the IC50 stood at 202 nM.
The value for `O=C1NCc2c1c1c3ccccc3n3c1c1c2c2ccccc2n1CC(O)(COC(=O)N1CCc2ccccc2C1)C3` (stereo not shown) [Cpd 147, 12,13-{2-hydroxy-2-[(1,2,3,4-tetrahydro-isoquinolin-2-yl)carbonyloxymethyl]-propan-1,3-yl}-6,7,12,13-tetrahydro-5-oxo-5H-indolo[2,3-a]pyrrolo[3,4-c]carbazole] was 28 nM.
As to `O=C1NCc2c1c1c3ccccc3n3c1c1c2c2ccccc2n1CC(CO)C3` (stereo not shown) [Cpd 23, 12,13-(2-hydroxymethyl-propan-1,3-yl)-6,7,12,13-tetrahydro-5-oxo-5H-indolo[2,3-a]pyrrolo[3,4-c]carbazole], the IC50 worked out at 22 nM.
In the case of `O=C1NC(=O)c2c1c1c3ccccc3n3c1c1c2c2ccccc2n1CC(OC(=O)N1CCN(c2ccccc2)CC1)CC3` (stereo not shown) [Cpd 64, 12,13-{2-[(4-phenyl-piperazin-1-yl)carbonyloxy]-butan-1,4-yl}-12,13-dihydro-5,7-dioxo-6H-indolo[2,3-a]pyrrolo[3,4-c]carbazole], the IC50 turned out to be 36 nM.
Take `Nc1ccc2c(c1)c1c3c(c4c5ccccc5n5c4c1n2CC(O)C(O)C5)CNC3=O` (stereo not shown) [Cpd 192, 3-amino-12,13-(2,3-dihydroxy-butan-1,4-yl)-6,7,12,13-tetrahydro-5-oxo-5H-indolo[2,3-a]pyrrolo[3,4-c]carbazole]: the IC50 was found to be 7 nM.
For `O=C1NC(=O)c2c1c1c3ccccc3n3c1c1c2c2ccccc2n1CC(OC(=O)N1CCC(C2CCCCC2)CC1)CC3` (stereo not shown) [Cpd 53, 12,13-{2-[(4-cyclohexyl-piperazin-1-yl)carbonyloxy]-butan-1,4-yl}-12,13-dihydro-5,7-dioxo-6H-indolo[2,3-a]pyrrolo[3,4-c]carbazole] the value was more than 400 nM; for `O=C1NCc2c1c1c3cc(/C=C/CNC4=NCCN4)ccc3n3c1c1c2c2ccccc2n1CC(CO)C3` (stereo not shown) [Cpd 221, 3-{(1E)-3-[(4,5-dihydro-1H-imidazol-2-yl)amino]-prop-1-en-1-yl}-12,13-(2-hydroxymethyl-propan-1,3-yl)-6,7,12,13-tetrahydro-5-oxo-5H-indolo[2,3-a]pyrrolo[3,4-c]carbazole], 31 nM.
The value for `O=C1NC(=O)c2c1c1c3ccccc3n3c1c1c2c2ccccc2n1CC(OC(=O)N1CCN(CCc2ccccc2)CC1)CC3` (stereo not shown) [Cpd 65, 12,13-(2-{[4-(2-phenyl-ethyl)piperazin-1-yl]carbonyloxy}-butan-1,4-yl)-12,13-dihydro-5,7-dioxo-6H-indolo[2,3-a]pyrrolo[3,4-c]carbazole] was 1000 nM.
The value for `O=C1NCc2c1c1c3ccccc3n3c1c1c2c2ccccc2n1CC(COC(=O)N1CCN(CCO)CC1)C3` (stereo not shown) [Cpd 164, 12,13-(2-{[4-(2-hydroxy-ethyl)piperazin-1-yl]carbonyloxymethyl}-propan-1,3-yl)-6,7,12,13-tetrahydro-5-oxo-5H-indolo[2,3-a]pyrrolo[3,4-c]carbazole] was 377 nM.
On to `O=C1NCc2c1c1c3cc(OCCN4CCOCC4)ccc3n3c1c1c2c2ccccc2n1CC(O)C(O)C3` (stereo not shown) [Cpd 203, 3-(2-morpholin-4-yl-ethoxy)-12,13-(2,3-dihydroxy-butan-1,4-yl)-6,7,12,13-tetrahydro-5-oxo-5H-indolo[2,3-a]pyrrolo[3,4-c]carbazole], for which the IC50 turned out to be 618 nM.
Turning to `CN(C)CCNC(=O)OCC1(O)Cn2c3ccccc3c3c4c(c5c6ccccc6n(c5c32)C1)C(=O)NC4` (stereo not shown) [Cpd 173, 12,13-{2-hydroxy-2-[(2-dimethylamino-ethyl)carbamoyloxymethyl]-propan-1,3-yl}-6,7,12,13-tetrahydro-5-oxo-5H-indolo[2,3-a]pyrrolo[3,4-c]carbazole], the IC50 stood at 69 nM.
The value for `O=C1NC(=O)c2c1c1c3ccccc3n3c1c1c2c2ccccc2n1CC(OC(=O)N1CCCCC1)C(O)C3` (stereo not shown) [Cpd 99, 12,13-[2-(piperidin-1-yl-carbonyloxy)-3-hydroxy-butan-1,4-yl]-12,13-dihydro-5,7-dioxo-6H-indolo[2,3-a]pyrrolo[3,4-c]carbazole] was 184 nM; that for `CN(C)C1CCN(C(=O)OC2Cn3c4ccccc4c4c5c(c6c7ccccc7n(c6c43)CC2O)C(=O)NC5=O)C1` (stereo not shown) [Cpd 100, 12,13-{2-[(3-dimethyl-pyrrolidin-1-yl)carbonyloxy]-3-hydroxy-butan-1,4-yl}-12,13-dihydro-5,7-dioxo-6H-indolo[2,3-a]pyrrolo[3,4-c]carbazole] was 173 nM.
